Measurements as given in paper PMC4183669 (Chemistry and physics of lipids, 2014).
Where two headings read alike, the source gives them in different places. Peptide text beside a SMILES is read from it. * marks the point of attachment. X1 = CCCCCCCCCCCCCCCC(=O)OC[C@H](COP(=O)([O-])OCC[N+](C)(C)C)O*

Legend:
[1] = molecular target: bee-venom phospholipase A2 (Apis mellifera, UniProt P00630); format: biochemical
membrane fusion = conditions: ref Epand, 2003; cited from earlier work

bee-venom phospholipase A2, sequence (P00630 34-167 limits assumed): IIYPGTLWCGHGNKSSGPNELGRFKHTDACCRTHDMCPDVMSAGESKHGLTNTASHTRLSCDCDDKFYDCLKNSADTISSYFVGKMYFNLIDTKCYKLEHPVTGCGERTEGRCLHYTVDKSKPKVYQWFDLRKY

Compound | time to complete hydrolysis by PLA2 [1] [min] | time to complete hydrolysis by PLA2 ([1]; 40°C) [min] | time to complete hydrolysis by PLA2 ([1]; pH 8.5) [min] | hydrolysis by bee-venom PLA2 (result in words) [1] | antiviral action by inhibition of membrane fusion (membrane fusion)
CCCCCCCCCCCCCCCC(=O)OC[C@H](COP(=O)([O-])OCC[N+](C)(C)C)OC(=O)CCCCCCCCCCCCCCC [DPPC, dipalmitoyl phosphatidylcholine, reference compound] | 10 | ≤ 90 | 10 | – | –
CCCCCCCCCCCCCCCC(=O)OC[C@H](COP(=O)([O-])OCC[N+](C)(C)C)OC(=O)CNC(=O)CNC(=O)[C@@H]1CCCN1C(=O)CN.Cl [compound 10, 1-Palmitoyl-2-(gly-pro-gly-gly)-sn-glycero-3-phosphocholine hydrochloride] (H-GPGG-X1) | – | – | ≤ 90 | completely hydrolyzed | –
CCCCCCCCCCCCCCCC(=O)OC[C@H](COP(=O)([O-])OCC[N+](C)(C)C)OC(=O)CNC(=O)OC(C)(C)C [compound 14, 1-palmitoyl-2-(N-BOC-glycyl)-sn-glycero-3-phosphocholine] | 20 | – | – | readily hydrolyzed | –
carbobenzoxy-D-Phe-Phe-Gly [compound 5] | – | – | – | – | blocking viral infection by inhibiting membrane fusion
CCCCCCCCCCCCCCCC(=O)OC[C@H](COP(=O)([O-])OCC[N+](C)(C)C)OC(=O)CNC(=O)[C@H](Cc1ccccc1)NC(=O)[C@@H](Cc1ccccc1)NC(=O)OCc1ccccc1 [compound 13, 1-Palmitoyl-2-(CBZ-D-phe-phe-gly)-sn-glycero-3-phosphocholine] | – | – | ≤ 90 | completely hydrolyzed | –
